Test [1] concerns the target Histone-lysine N-methyltransferase NSD2 (Homo sapiens, UniProt O96028). In kind it is biochemical.
Test [2] has as its target T1, Hexokinase-1 (Homo sapiens, UniProt P19367).
T1 sequence (P19367 whole entry): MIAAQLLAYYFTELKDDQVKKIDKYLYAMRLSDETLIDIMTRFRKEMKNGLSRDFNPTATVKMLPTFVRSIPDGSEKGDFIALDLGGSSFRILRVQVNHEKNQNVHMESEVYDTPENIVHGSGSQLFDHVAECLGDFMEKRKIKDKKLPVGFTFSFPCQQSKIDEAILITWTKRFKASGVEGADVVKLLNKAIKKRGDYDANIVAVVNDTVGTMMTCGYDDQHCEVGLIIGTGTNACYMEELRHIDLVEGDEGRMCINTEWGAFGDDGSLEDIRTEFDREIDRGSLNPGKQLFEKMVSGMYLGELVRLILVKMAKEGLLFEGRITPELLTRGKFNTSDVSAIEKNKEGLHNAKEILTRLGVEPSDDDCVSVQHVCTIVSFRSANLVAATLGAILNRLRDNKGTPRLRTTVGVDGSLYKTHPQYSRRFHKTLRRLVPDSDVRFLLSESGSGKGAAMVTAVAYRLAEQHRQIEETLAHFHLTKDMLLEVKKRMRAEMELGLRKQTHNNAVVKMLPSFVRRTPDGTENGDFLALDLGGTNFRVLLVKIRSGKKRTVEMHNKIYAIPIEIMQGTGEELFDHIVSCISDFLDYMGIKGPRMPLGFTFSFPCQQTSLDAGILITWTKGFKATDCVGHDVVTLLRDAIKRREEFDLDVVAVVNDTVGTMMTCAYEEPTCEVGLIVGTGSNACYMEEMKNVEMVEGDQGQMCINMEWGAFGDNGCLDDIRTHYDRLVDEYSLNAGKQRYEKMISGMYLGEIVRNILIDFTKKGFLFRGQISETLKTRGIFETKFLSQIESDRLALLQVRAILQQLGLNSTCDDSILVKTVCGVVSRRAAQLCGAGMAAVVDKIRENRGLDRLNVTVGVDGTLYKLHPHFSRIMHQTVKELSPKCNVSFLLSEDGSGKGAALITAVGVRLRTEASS
Put plainly: hexokinase 1 activators, dose response, selectivity assay for HKDC1 activator project, biochemical (AID 504762). It is filed as functional.

The target in test [3] is T2, Hexokinase HKDC1 (Homo sapiens, UniProt Q2TB90).
T2 sequence (Q2TB90 whole entry): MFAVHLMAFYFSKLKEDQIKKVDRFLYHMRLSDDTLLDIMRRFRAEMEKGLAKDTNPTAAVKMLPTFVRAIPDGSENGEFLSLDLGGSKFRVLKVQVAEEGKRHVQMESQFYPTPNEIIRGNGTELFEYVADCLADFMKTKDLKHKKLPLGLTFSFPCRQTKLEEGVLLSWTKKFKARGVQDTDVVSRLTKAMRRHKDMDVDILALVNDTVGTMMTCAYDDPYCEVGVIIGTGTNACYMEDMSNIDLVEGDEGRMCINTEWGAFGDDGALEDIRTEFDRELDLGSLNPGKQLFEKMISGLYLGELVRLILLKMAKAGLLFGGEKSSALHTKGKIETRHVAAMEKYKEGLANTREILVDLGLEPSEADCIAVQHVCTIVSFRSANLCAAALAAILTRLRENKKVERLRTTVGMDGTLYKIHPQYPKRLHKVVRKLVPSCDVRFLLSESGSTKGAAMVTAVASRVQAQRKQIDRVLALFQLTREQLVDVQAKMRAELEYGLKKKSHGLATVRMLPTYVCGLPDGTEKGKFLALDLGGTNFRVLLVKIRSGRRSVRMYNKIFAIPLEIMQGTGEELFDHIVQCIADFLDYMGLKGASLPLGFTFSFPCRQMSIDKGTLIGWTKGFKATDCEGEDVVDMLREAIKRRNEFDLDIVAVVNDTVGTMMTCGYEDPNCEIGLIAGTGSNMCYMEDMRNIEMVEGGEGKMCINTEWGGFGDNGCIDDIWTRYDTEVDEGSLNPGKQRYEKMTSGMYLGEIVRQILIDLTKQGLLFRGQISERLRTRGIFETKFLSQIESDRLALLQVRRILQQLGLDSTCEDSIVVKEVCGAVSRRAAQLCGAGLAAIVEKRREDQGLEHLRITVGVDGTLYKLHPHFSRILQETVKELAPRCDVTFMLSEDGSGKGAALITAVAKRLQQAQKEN
Put plainly: HKDC1 hexokinase activators, dose response, biochemical, W721R variant (AID 504730). It is filed as functional.

Test [4] can be described thus: inhibitors of SNCA 5'UTR-driven reporter translation, confirmation, H4 neuroglioma cells, luminescence (AID 1988). It is filed as functional, cell-based.
A short description of test [5]: NIH-3T3 fibroblast cytotoxicity, dose response, cytotoxicity control, cell-based, fluorescence, Alamar Blue, secondary assay (AID 2327).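 Further: NIH-3T3 mouse fibroblasts cultured with fluconazole at 8 µg/mL.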 In kind it is functional. For orientation: Resazurin is reduced to fluorescent resorufin, in cell work by metabolically active cells.
The target in test [6] is T3, Intestinal-type alkaline phosphatase (Homo sapiens, UniProt P09923). Put plainly: human intestinal alkaline phosphatase activators, dose response, biochemical, luminescence, uHTS hits (AID 463120). It is filed as functional.
The nature of test [7]: cells. In kind it is functional.
The subject of test [8] is BJ. Put plainly: cytotoxicity toward BJ-TERT fibroblasts, dose response, cell-based, RAS-independent, luminescence (AID 1933). In kind it is functional. To be noted: Homo sapiens.
The nature of test [9]: insulin promoter down-regulators in MIN6 cells, imaging, high-content screening, mouse beta cells (AID 1628). It is filed as functional.
Test [10] can be described thus: cytotoxicity in HPDE-C7 cells, cell-based, fluorescence, HTS (AID 430). It is filed as functional. To be noted: Homo sapiens.
In test [11] the test system is BJ. Put plainly: cytotoxicity toward BJ-TERT-LT-ST fibroblasts, dose response, cell-based, RAS-independent, luminescence (AID 1935).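 Further: BJ fibroblasts immortalized with TERT plus LT and ST oncogenes.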 To be noted: Homo sapiens. In kind it is functional.
Test [12] is described as follows: inhibitors of firefly luciferase expression or activity, dose response, H4 neuroglioma cells, luminescence (AID 1990). It is filed as functional, cell-based.
Test [13] in a line: C. albicans growth with fluconazole, confirmation, fluorescence, retest (AID 2467). It is filed as functional, cell-based.
Test [14] addresses Nonstructural protein 1 (Influenza A virus, UniProt Q194T2). It is filed as functional, Influenza A virus (A/California/07/2009(H1N1)).
Test [15] can be described thus: cytotoxicity in HEK-293T cells, dose response, cytotoxicity control for TCR NF-kB inhibitor project, luminescence, T-cell screen hits (AID 489026).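 Further: cells exposed to compound about 14 hours before the viability readout.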 It is filed as functional, cell-based.
Test [16] is described as follows: cytotoxicity in KRAS-transformed pancreatic duct cells, primary screen, cell-based, fluorescence, HTS (AID 431).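 Further: cell line used: HPDE-C7K.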 It is filed as functional. To be noted: Homo sapiens.
A short description of test [17]: Luminescence-based dose response cell-based high throughput screening assay for cytotoxic compounds using the IEC-6 intestinal epithelial cell line. [Related pubchem assays: 1858 (Summary AID.), 1825 (Counterscreen.), 1907 (Confirmation screen.)]. In kind it is functional. For orientation: Counterscreens check selectivity or assay interference.
For test [18], the target named is T4, Alkaline phosphatase, tissue-nonspecific isozyme (Homo sapiens, UniProt P05186).
T4 sequence (P05186 whole entry): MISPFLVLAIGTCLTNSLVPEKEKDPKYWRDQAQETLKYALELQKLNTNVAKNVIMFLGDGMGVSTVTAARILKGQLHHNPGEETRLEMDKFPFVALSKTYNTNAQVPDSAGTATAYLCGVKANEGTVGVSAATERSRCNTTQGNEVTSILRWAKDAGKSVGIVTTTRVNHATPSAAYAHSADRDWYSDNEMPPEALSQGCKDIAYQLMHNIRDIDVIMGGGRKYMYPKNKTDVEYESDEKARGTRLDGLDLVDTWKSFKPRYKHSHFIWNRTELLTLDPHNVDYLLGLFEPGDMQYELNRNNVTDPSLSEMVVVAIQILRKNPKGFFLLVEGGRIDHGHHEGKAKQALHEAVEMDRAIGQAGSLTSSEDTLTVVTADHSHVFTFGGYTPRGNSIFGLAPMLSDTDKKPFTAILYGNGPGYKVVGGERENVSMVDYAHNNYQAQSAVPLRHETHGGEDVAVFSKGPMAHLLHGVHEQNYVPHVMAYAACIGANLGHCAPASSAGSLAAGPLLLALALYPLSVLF
Put plainly: TNAP enzyme activators, dose response, selectivity assay for human IAP activator project, biochemical, TNAP isozyme, human IAP uHTS hits (AID 488886).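 Further: potency of compounds raising TNAP activity as a selectivity check on IAP activators.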 In kind it is functional.

The nature of test [19]: cytotoxicity in MIN6 insulinoma cells, dose response, cytotoxicity control, cell-based, mouse insulinoma (AID 2122).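 Further: confirmatory high-throughput counterscreen run to flag cytotoxic compounds; mouse MIN-6 beta cells carrying an insulin promoter eGFP reporter.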 In kind it is functional.
Test [20] is described as follows: THP-1 cell cytotoxicity, dose response, cytotoxicity control for non-replicating M. tuberculosis project (AID 489025). In kind it is functional.
Test [21] concerns the target Heat shock protein HSP 90-alpha (Homo sapiens, UniProt P07900). In kind it is functional, organism-based.
Test [22] in a line: Vero E6 cell cytotoxicity, dose response, cytotoxicity control for non-replicating M. tuberculosis project, secondary assay (AID 492998). It is filed as functional, VeroE6. To be noted: Vero C1008.
Test [23] is described as follows: cytotoxicity toward DRD oncogenic fibroblasts, dose response, cell-based, non-viral oncogenic, luminescence (AID 1934). It is filed as functional. To be noted: Homo sapiens.
In test [24] the test system is BJ. Put plainly: cells. To be noted: Homo sapiens. In kind it is functional, cell-based.
The subject of test [25] is HEK293. Put plainly: inhibitors of LMP1-driven NF-kB reporter, dose response, cell-based, HEK293, luciferase, cherry-pick (AID 588343). In kind it is functional. To be noted: Homo sapiens.
In test [26] the test system is INS1. Put plainly: beta cell apoptosis inhibitors, cytokine rescue, dose response, luminescence, retest (AID 449756).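 Further: cell death triggered by IL-1 beta plus TNF-alpha plus IFN-gamma mixture; protective hits raise ATP signal compared with cytokine alone wells.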 To be noted: Rattus norvegicus. It is filed as functional, cell-based.
The nature of test [27]: Luminescence Cell-Based Dose Response HTS to Identify Inhibitors of 5'UTR Stem-Loop Driven Prion Protein mRNA Translation in H4 Neuroglioblastoma Cells. [Related pubchem assays: 1827 (Project Summary), 1813 (Primary HTS)]. In kind it is functional.
Test [28] has as its target Intestinal-type alkaline phosphatase (Mus musculus, UniProt P24822). Put plainly: PubChem AID 488874. It is filed as functional.
The nature of test [29]: HepG2 cell cytotoxicity, dose response, cytotoxicity control for non-replicating M. tuberculosis project (AID 489018). To be noted: Mycobacterium tuberculosis. It is filed as functional.
The target of test [30] is T3, Intestinal-type alkaline phosphatase. Put plainly: human IAP activators, dose response, biochemical, luminescent, uHTS hits, set 2 (AID 488817).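 Further: potency of activators that raise enzyme activity.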 It is filed as functional.
Test [31] concerns the target Keap1/Nrf2 (Homo sapiens, UniProt Q14145). Put plainly: Keap1-Nrf2 protein-protein interaction inhibitors, dose response, biochemical, fluorescence polarization, cherry-picked samples (AID 588683). Background: Fluorescence polarisation rises when a labelled molecule tumbles more slowly, as on binding a larger partner.
In test [32] the target is Protein S100-A4 (Homo sapiens, UniProt P26447). Put plainly: S100A4-myosin IIA binding inhibitor potency, dose response, biochemical, fluorescence polarization, cherry-picked hits (AID 687001). It is filed as functional.
Test [33] deals with Paired box protein Pax-8 (Homo sapiens, UniProt Q06710). Put plainly: inhibitors of PAX8-driven TPO luciferase reporter, dose response, RMG-I cells, cherry-pick (AID 687027).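 Further: luciferase reporter driven by Pax8 target thyroperoxidase promoter measured by SteadyGlo luminescence.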 In kind it is functional, cell-based.
The target of test [34] is Photoreceptor-specific nuclear receptor (Homo sapiens, UniProt Q9Y5X4). In kind it is functional, cell-based.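 Further: CHO-S cells with Gal4-NCOR and VP16-NR2E3 two-hybrid luciferase reporter.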

The source of these data is ChEMBL document CHEMBL1201862, “PubChem BioAssay data set” (2004).

Activity calls are given as the source filed them.

T3 sequence (P09923 whole entry): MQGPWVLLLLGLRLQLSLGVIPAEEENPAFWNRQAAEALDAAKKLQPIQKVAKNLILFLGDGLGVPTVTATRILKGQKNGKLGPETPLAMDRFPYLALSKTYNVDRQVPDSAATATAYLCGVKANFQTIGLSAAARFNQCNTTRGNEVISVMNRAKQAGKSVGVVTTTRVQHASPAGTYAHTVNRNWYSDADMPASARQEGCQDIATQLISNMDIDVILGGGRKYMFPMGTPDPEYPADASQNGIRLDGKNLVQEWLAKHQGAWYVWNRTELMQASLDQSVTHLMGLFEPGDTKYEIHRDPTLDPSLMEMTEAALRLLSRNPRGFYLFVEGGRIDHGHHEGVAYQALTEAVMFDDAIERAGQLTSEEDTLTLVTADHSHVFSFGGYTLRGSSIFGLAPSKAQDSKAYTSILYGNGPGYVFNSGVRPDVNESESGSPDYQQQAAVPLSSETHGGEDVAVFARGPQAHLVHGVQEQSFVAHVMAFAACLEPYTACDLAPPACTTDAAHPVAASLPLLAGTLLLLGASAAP
Sequence of Intestinal-type alkaline phosphatase (Mus musculus, UniProt P24822) (P24822 whole entry): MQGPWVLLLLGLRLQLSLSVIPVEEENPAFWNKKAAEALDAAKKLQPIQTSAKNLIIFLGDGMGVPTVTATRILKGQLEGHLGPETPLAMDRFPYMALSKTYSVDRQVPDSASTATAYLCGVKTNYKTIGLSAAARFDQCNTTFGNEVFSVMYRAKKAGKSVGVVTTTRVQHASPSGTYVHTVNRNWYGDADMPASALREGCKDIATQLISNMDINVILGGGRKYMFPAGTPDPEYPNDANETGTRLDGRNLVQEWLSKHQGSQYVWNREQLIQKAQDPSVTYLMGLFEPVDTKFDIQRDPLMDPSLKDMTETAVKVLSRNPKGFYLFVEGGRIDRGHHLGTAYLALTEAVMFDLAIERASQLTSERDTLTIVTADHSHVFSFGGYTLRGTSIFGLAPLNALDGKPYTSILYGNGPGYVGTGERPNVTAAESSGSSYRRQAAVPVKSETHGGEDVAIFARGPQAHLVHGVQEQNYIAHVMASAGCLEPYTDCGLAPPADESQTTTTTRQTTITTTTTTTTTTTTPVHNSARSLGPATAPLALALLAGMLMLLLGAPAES
Sequence of Histone-lysine N-methyltransferase NSD2 (O96028 whole entry): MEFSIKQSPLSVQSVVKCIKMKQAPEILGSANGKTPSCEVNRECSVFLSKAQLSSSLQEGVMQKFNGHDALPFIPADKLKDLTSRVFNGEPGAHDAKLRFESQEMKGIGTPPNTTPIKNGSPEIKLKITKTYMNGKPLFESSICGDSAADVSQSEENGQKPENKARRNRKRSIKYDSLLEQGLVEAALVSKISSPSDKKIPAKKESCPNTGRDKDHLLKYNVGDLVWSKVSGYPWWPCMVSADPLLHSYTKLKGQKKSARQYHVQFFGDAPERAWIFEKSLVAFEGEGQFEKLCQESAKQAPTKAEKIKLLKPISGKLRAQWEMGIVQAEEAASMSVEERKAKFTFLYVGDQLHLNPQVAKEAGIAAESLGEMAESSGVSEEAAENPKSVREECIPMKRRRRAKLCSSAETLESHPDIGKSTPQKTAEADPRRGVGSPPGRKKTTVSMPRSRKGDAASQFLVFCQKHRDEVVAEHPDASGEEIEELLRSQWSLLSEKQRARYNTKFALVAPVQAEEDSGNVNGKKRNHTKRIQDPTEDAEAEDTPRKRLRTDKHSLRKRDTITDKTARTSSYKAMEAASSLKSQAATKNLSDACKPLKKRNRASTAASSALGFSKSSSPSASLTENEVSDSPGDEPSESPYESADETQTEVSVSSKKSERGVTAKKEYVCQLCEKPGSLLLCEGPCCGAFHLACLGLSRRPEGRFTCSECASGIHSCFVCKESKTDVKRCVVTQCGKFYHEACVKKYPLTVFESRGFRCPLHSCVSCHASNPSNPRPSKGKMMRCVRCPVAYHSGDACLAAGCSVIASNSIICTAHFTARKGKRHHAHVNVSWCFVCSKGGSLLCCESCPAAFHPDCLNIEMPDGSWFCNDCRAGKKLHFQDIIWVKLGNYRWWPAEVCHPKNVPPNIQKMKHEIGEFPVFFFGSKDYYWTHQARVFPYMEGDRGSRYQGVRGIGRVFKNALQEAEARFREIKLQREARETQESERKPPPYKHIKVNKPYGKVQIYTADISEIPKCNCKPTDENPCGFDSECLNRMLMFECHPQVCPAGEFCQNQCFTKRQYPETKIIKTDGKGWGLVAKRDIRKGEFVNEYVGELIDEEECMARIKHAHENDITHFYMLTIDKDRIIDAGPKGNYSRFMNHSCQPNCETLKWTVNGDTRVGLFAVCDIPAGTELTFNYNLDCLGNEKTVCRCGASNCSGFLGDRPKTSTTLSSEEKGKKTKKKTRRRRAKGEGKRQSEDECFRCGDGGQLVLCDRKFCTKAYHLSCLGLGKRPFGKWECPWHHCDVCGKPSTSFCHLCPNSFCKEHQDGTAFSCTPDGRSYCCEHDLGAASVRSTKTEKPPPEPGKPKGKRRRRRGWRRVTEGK
Sequence of Keap1/Nrf2 (Q16236 whole entry): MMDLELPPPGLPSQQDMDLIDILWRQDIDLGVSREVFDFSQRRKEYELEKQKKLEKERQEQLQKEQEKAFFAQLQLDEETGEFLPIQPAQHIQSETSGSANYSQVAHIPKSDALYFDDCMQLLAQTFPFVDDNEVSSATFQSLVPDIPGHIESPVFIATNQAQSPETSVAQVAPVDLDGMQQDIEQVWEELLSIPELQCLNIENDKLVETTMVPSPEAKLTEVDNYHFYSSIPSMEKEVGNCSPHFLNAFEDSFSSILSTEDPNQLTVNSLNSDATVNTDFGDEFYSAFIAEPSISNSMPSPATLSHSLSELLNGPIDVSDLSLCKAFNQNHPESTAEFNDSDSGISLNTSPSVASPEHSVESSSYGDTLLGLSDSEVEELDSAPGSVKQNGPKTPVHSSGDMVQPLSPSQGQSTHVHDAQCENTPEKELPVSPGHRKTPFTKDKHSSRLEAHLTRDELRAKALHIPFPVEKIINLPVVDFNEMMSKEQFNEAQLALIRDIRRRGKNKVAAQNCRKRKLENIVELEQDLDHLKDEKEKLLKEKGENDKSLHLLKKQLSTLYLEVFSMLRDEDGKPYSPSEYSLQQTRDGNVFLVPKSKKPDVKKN
Sequence of Keap1/Nrf2 (Q14145 whole entry): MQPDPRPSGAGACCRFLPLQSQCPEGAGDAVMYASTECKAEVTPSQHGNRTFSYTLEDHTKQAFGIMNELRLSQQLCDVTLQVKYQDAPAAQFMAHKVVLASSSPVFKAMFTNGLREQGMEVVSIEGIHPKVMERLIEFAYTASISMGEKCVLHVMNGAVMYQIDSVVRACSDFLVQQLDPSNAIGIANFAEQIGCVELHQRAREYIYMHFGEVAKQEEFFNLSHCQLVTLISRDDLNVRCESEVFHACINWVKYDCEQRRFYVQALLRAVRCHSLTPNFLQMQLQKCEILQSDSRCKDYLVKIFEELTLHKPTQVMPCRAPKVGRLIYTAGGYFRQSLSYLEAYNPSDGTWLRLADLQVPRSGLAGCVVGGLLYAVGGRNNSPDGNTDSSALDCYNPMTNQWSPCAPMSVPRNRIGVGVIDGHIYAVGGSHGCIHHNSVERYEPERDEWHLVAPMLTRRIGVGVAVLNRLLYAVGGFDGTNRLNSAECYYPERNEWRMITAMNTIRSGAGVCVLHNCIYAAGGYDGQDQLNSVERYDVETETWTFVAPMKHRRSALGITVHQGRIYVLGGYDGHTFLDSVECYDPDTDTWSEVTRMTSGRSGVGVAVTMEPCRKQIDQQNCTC
Sequence of Nonstructural protein 1 (Q194T2 whole entry): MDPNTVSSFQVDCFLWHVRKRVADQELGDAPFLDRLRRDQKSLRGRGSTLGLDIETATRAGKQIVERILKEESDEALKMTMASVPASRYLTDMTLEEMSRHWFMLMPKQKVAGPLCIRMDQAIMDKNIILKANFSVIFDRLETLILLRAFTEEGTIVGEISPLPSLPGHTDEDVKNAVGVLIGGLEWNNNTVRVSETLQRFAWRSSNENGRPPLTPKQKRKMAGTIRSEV
Sequence of Paired box protein Pax-8 (Q06710 whole entry, the tested form may be a part): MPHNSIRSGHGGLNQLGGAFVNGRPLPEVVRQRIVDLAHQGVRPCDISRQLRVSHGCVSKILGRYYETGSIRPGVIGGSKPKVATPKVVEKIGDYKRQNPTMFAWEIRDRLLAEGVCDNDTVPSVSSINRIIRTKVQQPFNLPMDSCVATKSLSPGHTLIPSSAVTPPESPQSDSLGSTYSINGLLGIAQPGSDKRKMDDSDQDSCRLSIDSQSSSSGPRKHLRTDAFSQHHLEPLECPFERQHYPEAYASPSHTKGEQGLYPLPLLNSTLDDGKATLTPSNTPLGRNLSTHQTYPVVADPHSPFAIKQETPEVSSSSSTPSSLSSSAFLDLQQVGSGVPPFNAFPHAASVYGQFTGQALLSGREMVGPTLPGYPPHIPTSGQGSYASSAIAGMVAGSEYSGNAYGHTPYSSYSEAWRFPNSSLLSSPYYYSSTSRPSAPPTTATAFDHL
Sequence of Protein S100-A4 (P26447 whole entry): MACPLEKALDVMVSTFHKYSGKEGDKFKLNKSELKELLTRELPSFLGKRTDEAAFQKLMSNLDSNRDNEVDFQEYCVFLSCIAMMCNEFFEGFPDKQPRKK
Sequence of Photoreceptor-specific nuclear receptor (Q9Y5X4 whole entry, the tested form may be a part): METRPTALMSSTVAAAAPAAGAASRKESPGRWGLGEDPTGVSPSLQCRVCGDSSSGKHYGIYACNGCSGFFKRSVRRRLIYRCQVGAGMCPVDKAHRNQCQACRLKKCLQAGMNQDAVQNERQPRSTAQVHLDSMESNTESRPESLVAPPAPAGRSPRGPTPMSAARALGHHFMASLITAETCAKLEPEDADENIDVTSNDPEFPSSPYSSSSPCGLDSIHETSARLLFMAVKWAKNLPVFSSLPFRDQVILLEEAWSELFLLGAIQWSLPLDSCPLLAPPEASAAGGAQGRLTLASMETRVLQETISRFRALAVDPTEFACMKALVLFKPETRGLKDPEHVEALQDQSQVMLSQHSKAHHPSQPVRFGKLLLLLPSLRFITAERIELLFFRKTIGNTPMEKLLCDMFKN

The AC50 is the midpoint of the concentration-response curve, whichever way the signal moves. Broadly, the EC50 is the concentration at which the effect is half-maximal. Turning to `CC(=O)Oc1cccc2c1C(=O)C1CC=CC(OC(C)=O)C1C2=O` (stereo not given), the AC50 in [1] was 10.4 µM (active). Further, the EC50 is 34.1 µM (inactive) in test [2] and 51.6 µM (inactive) in [3].
The IC50 is the midpoint of a concentration-inhibition curve. Broadly, the CC50 is the concentration giving 50% cytotoxicity. On to `c1ccc(-c2cccc(-c3ccccn3)n2)nc1` [TERPYRIDINE], for which the EC50 is < 0.1 µM (active) in test [4]; 1.32 µM (active) in test [5]; 16.8 µM (active) in test [6]; 11.2 µM (active) in test [8]; 4.14 µM (active) in [10]; 4.32 µM (inconclusive) in [11]. Moreover, the EC50 is < 0.1 µM (active) in test [12]; 0.349 µM (active) in test [13]; 2.54 µM (active) in [16]; 27.5 µM (active) in test [18]; 17.1 µM (inconclusive) in [23]; 4.87 µM (active) in [24]. Besides, the EC50 in test [27] is < 0.1 µM (active); in test [30], 25.3 µM (active). Also, the IC50 in test [7] was 44.9 µM (active); in test [9], 0.504 µM (active); in test [14], 1.84 µM (active); in test [15] it was > 80 µM (inactive); in [17], 0.483 µM (active); in test [19], 0.716 µM (active). For the same compound, the IC50 in test [28] was > 100 µM (inactive). Also, the results for the CC50 in [20], in test [22] and in test [29] were 0.21 µM (active), 1.02 µM (active) and > 20 µM (active), respectively. Moreover, the results for the concentration at half-maximal activity (AC50) in [21], in test [25] and in test [26] were 1.35 µM (active), 2.11 µM (active) and < 0.195 µM (active), respectively.
`COc1cccc2c1C(=O)c1c(O)c3c(c(O)c1C2=O)CC(O)(C(C)=O)CC3OC1CC(N(C)C)C(O)C(C)O1` (stereo not given): the AC50 is > 52 µM (inactive) in test [31], 0.304 µM (active) in test [32], 0.807 µM (active) in test [21] and 1.52 µM (active) in test [33]. The IC50 in test [34] was 3.82 µM (active).
